Experimental data published in patent US20030114445A1, “N3-substituted 6-anilinopyrimidines and methods to treat-Gram-positive bacterial and mycoplasmal infections” (priority 2001, published 2003).
pKi: −log10 of the molar value. Converted amounts (≈) assume the structure as drawn. Like-named read-outs stand apart in the source and are kept apart here.

Experiments:
E. fecalis = assay: Inhibition of bacterial growth on agar plates (MIC); format: cell-based; details: 37° C., 24 hours
Method: (§1) Each compound is assayed against a panel of Bacillus, Enterococcus and Staphylococcus, and a Gram-negative bacterium Escherichia coli as negative control, grown in appropriate plate media solidified with 1.3% agar-agar. Stock solutions of the compounds in dimethylsulfoxide or water, depending on solubility, are added to sterile medium at a temperature of 60° C. […] One tenth mL of diluted bacteria containing 500-1000 colony-forming units (CFU) are plated and spread, and the plates incubated at 37° C. for 24 hours. MIC (minimum inhibitory concentration) is equivalent to the lowest concentration at which growth, i.e. colony formation, is not observed.

E. fecium = assay: as above; format: cell-based; details: 37° C., 24 hours
Method: as §1

S.aureus (Smith) = assay: as above; format: cell-based; details: Staphylococcus aureus, 37° C., 24 hours
Method: as §1

B. subtilis = assay: as above; format: cell-based; details: Bacillus subtilis, 37° C., 24 hours
Method: as §1

B.subtilis pol IIIC = B.subtilis pol IIIC (Bacillus subtilis, UniProt P13267); assay: biochemical
B.subtilis pol IIIC, sequence (P13267 whole entry): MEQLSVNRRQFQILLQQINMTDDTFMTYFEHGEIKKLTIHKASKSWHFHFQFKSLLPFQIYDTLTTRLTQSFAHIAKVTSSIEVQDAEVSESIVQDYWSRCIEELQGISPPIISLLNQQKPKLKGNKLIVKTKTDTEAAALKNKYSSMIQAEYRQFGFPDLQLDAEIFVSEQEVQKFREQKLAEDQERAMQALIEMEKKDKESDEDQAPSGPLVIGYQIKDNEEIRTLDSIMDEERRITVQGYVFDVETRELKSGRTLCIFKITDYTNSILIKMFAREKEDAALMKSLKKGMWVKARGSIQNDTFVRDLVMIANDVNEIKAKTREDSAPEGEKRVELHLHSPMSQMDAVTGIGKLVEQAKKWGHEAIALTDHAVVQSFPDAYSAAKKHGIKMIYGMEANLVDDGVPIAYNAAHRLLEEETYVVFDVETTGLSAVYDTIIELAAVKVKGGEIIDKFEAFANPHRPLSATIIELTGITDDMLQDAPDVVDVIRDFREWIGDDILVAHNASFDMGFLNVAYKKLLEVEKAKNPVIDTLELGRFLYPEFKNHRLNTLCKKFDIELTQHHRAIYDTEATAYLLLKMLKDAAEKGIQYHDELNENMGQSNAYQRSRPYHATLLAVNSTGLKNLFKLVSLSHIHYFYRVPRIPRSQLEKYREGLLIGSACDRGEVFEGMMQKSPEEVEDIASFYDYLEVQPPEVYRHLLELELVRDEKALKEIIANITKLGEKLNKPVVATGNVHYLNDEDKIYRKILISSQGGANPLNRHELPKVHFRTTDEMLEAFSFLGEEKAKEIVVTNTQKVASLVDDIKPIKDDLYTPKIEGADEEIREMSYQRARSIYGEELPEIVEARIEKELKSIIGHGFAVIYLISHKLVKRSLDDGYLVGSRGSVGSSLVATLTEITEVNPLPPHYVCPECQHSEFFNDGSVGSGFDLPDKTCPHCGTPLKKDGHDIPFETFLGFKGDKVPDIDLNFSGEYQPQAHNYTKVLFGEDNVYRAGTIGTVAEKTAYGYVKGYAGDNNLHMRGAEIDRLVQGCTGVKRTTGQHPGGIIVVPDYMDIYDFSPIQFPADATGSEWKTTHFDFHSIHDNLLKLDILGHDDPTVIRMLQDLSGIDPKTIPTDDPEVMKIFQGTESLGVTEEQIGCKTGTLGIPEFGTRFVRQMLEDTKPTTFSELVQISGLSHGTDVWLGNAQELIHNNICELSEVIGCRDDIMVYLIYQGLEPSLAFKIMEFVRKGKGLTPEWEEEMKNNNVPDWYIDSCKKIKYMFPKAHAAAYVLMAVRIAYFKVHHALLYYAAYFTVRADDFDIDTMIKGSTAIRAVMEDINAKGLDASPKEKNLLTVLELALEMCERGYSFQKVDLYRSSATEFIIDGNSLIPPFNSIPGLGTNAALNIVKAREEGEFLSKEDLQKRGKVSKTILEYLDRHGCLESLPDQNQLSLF
Method: DNA pol activity was assayed as described in Barnes et al., Nuc. Acids Res., 6:1203-19 (1979), using activated “nicked” calf-thymus DNA as template primer, 10 pM [^3H-methyl]-dTTP as the labelled dNTP substrate, and dATP, dCTP, and dGTP at 25 μM each.
Inhibitory activity of the compounds is determined by measuring the ability of the agent to inhibit enzyme-catalyzed incorporation of [^3H]-dTMP into nicked calf thymus DNA in the absence of the competitor dGTP or dATP (“truncated assay”) (see G. E. Wright and N. C. Brown, Inhibition of Bacillus subtilis DNA Polymerase III by Arylhydrazinopyrimidines: Novel Properties of 2-Thiouracil Derivatives, Biochim. Biophys. Acta 432:37-48 (1976)). Purified pol IIIC is added to a buffered solution containing Mg^2+, DTT, glycerol, nicked calf thymus DNA, saturating concentrations of dATP, dCTP, dTTP and [^3H]-dTTP. Reaction mixtures are incubated at 30° C. for 10 minutes, quenched and filtered, and radioactivity in the acid-insoluble material measured by scintillation counting. Experiments are done in triplicate. Inhibitors are assayed by addition of several dilutions of a stock solution of inhibitor (DMSO or water, depending on solubility) before enzyme addition. […] The truncated assay, i.e. exclusion of the competitive substrate dGTP or dATP, depending upon whether the compound is a uracil derivative or an isocytosine derivative, respectively, allows for the direct determination of apparent inhibitor constants (K,) in this assay system.

[1] = truncated assay, apparent inhibitor constant, read-out: K1 B.subtilis pol IIIC

SMILES | MIC (E. fecalis) | MIC (E. fecium) | MIC (S.aureus (Smith)) | MIC (B. subtilis) | pKi (B.subtilis pol IIIC; [1]) | pKi (B.subtilis pol IIIC)
CCc1cc(Nc2cc(=O)n(CCCCN3CCSCC3)c(=O)[nH]2)ccc1C [Compound 36, 3-[(N-Thiomorpholino)butyl]-6-(3-ethyl-4-methylanilino)uracil] | 5 µg/mL (≈ 12.4 µM) | 5 µg/mL (≈ 12.4 µM) | 10 µg/mL (≈ 24.8 µM) | 5 µg/mL (≈ 12.4 µM) | 7.17 | –
CCOC(=O)CCCn1c(=O)cc(Nc2ccc(C)c(CC)c2)[nH]c1=O [Compound 10, 3-[3-(Ethoxycarbonyl)propyl]-6-(3-ethyl-4-methylanilino)uracil] | 5 µg/mL (≈ 13.9 µM) | 2.5 µg/mL (≈ 6.96 µM) | 2.5 µg/mL (≈ 6.96 µM) | < 1.25 µg/mL | – | 7.00
CCc1cc(Nc2cc(=O)n(CCCCN3CCN(c4nc(C)cc(C(=O)OC)n4)CC3)c(=O)[nH]2)ccc1C [Compound 61, 3-{4-[4-(6-methyl-4-methoxycarbonyl-2-pyrimidinyl)-1-piperazinyl]butyl}-6-(3-ethyl-4-methylanilino)uracil] | 20 µg/mL (≈ 37.3 µM) | 20 µg/mL (≈ 37.3 µM) | 40 µg/mL (≈ 74.7 µM) | 10 µg/mL (≈ 18.7 µM) | – | 7.18
CCOC(=O)C1CN(CCCCCn2c(=O)cc(Nc3ccc(C)c(CC)c3)[nH]c2=O)CCC1=O (stereo not shown) [Compound 78, 3-{5-(3-ethoxycarbonyl-4-oxopiperidinyl)pentyl}-6-(3-ethyl-4-methylanilino)uracil] | 80 µg/mL (≈ 165 µM) | 80 µg/mL (≈ 165 µM) | 80 µg/mL (≈ 165 µM) | 80 µg/mL (≈ 165 µM) | – | 6.60
CCc1cc(Nc2cc(=O)n(CCCC(=O)O)c(=O)[nH]2)ccc1C [Compound 31, 3-(3-Carboxypropyl)-6-(3-ethyl-4-methylanilino)uracil] | > 20 µg/mL | 20 µg/mL (≈ 60.4 µM) | 10 µg/mL (≈ 30.2 µM) | > 20 µg/mL | – | 7.24
CCc1cc(Nc2cc(=O)n(CCCC(C)=O)c(=O)[nH]2)ccc1C [Compound 8, 3-(4-Oxopentyl)-6-(3-ethyl-4-methylanilino)uracil] | 5 µg/mL (≈ 15.2 µM) | 5 µg/mL (≈ 15.2 µM) | 5 µg/mL (≈ 15.2 µM) | < 1.25 µg/mL | – | 7.21
CCc1cc(Nc2cc(=O)n(CCCCNS(=O)(=O)c3cccs3)c(=O)[nH]2)ccc1C [Compound 48, 3-[4-(2-thienylsulfonylamino)butyl]-6-(3-ethyl-4-methylanilino)uracil] | 5 µg/mL (≈ 10.8 µM) | 2.5 µg/mL (≈ 5.4 µM) | 5 µg/mL (≈ 10.8 µM) | 2.5 µg/mL (≈ 5.4 µM) | – | 7.12
CCc1cc(Nc2cc(=O)n(CCCCCN3CC=C(c4ccc(F)cc4)CC3)c(=O)[nH]2)ccc1C [Compound 75] | 5 µg/mL (≈ 10.2 µM) | 5 µg/mL (≈ 10.2 µM) | 5 µg/mL (≈ 10.2 µM) | 5 µg/mL (≈ 10.2 µM) | – | 7.01
CCc1cc(Nc2cc(=O)n(CCCCN3CC=C(c4ccc(F)c(C)c4)CC3)c(=O)[nH]2)ccc1C [Compound 82] | 20 µg/mL (≈ 40.8 µM) | 20 µg/mL (≈ 40.8 µM) | 20 µg/mL (≈ 40.8 µM) | 10 µg/mL (≈ 20.4 µM) | – | 7.54
CCc1cc(Nc2cc(=O)n(CC#CCO)c(=O)[nH]2)ccc1C [Compound 13, 3-(4-Hydoxy-2-butynyl)-6-(3-ethyl-4-methylanilino)uracil] | 10 µg/mL (≈ 31.9 µM) | 10 µg/mL (≈ 31.9 µM) | 5 µg/mL (≈ 16 µM) | 5 µg/mL (≈ 16 µM) | – | 7.17
CCOC(=O)CCCCn1c(=O)cc(Nc2ccc(C)c(CC)c2)[nH]c1=O [Compound 6, 3-(4-Ethoxycarbonylbutyl)-6-(3-ethyl-4-methylanilino)uracil] | 5 µg/mL (≈ 13.4 µM) | < 1.25 µg/mL | 2.5 µg/mL (≈ 6.69 µM) | < 1.25 µg/mL | – | 7.12
CCc1cc(Nc2cc(=O)n(CCCC#N)c(=O)[nH]2)ccc1C [Compound 19, 3-(3-Cyanopropyl)-6-(3-ethyl-4-methylanilino)uracil] | 5 µg/mL (≈ 16 µM) | 5 µg/mL (≈ 16 µM) | 2.5 µg/mL (≈ 8 µM) | 2.5 µg/mL (≈ 8 µM) | – | 6.85
CCc1cc(Nc2cc(=O)n(CCCCN3CCC(O)(c4ccc(Cl)cc4)CC3)c(=O)[nH]2)ccc1C [Compound 38, 3{[4-(4-Chlorophenyl)-4-hydroxypiperidino]butyl}-6-(3-ethyl-4-methylanilino)uracil] | 5 µg/mL (≈ 9.78 µM) | 5 µg/mL (≈ 9.78 µM) | 5 µg/mL (≈ 9.78 µM) | 5 µg/mL (≈ 9.78 µM) | 7.60 | –
CCc1cc(Nc2cc(=O)n(CCOCCOCCO)c(=O)[nH]2)ccc1C [Compound 21, 3-{2-[2-Hydroxyethoxy-(2-ethoxy)]ethyl}-6-(3-ethyl-4-methylanilino)uracil] | 10 µg/mL (≈ 26.5 µM) | 10 µg/mL (≈ 26.5 µM) | 10 µg/mL (≈ 26.5 µM) | 2.5 µg/mL (≈ 6.62 µM) | – | 7.06
CCc1cc(Nc2cc(=O)n(CCCCCN3CC=C(c4cccc5ccsc45)CC3)c(=O)[nH]2)ccc1C [Compound 73, 3-{5-[1-(4-(benzo[b]thiophen-7-yl)-1,2,3,6-tetrahydropyridinyl)]pentyl}-6-(3-ethyl-4-methylanilino)uracil] | > 80 µg/mL | > 80 µg/mL | 10 µg/mL (≈ 18.9 µM) | 10 µg/mL (≈ 18.9 µM) | – | 7.10
CCc1cc(Nc2cc(=O)n(CC(C)=O)c(=O)[nH]2)ccc1C [Compound 15, 3-(2-Oxopropyl)-6-(3-ethyl-4-methylanilino)uracil] | 20 µg/mL (≈ 66.4 µM) | 10 µg/mL (≈ 33.2 µM) | 10 µg/mL (≈ 33.2 µM) | 2.5 µg/mL (≈ 8.3 µM) | – | 6.52
CCc1cc(Nc2cc(=O)n(C/C=C/CO)c(=O)[nH]2)ccc1C [Compound 32, 3-(4-Hydroxy-2-butenyl)-6-(3-ethyl-4-methylanilino)uracil] | 5 µg/mL (≈ 15.9 µM) | 2.5 µg/mL (≈ 7.93 µM) | 5 µg/mL (≈ 15.9 µM) | 1.25 µg/mL (≈ 3.96 µM) | – | 7.29
CCc1cc(Nc2cc(=O)n(CCCCOC(=O)CCl)c(=O)[nH]2)ccc1C [Compound 51, 3-[4-(2-chloroacetoxy)butyl]-6-(3-ethyl-4-methylanilino)uracil] | 2.5 µg/mL (≈ 6.35 µM) | 5 µg/mL (≈ 12.7 µM) | 10 µg/mL (≈ 25.4 µM) | 0.313 µg/mL (≈ 0.795 µM) | – | 7.40
CCc1cc(Nc2cc(=O)n(CC(C)CO)c(=O)[nH]2)ccc1C (stereo not shown) [Compound 25, 3-(3-Hydroxy-2-methylpropyl)-6-(3-ethyl-4-methylanilino)uracil] | 5 µg/mL (≈ 15.8 µM) | 2.5 µg/mL (≈ 7.88 µM) | 5 µg/mL (≈ 15.8 µM) | < 1.25 µg/mL | – | 6.96
CCc1cc(Nc2cc(=O)n(CCCCCNC(=O)c3cccs3)c(=O)[nH]2)ccc1C [Compound 70, 3-[5-(2-thiophenecarboxamido)pentyl]-6-(3-ethyl-4-methylanilino)uracil] | 5 µg/mL (≈ 11.3 µM) | 5 µg/mL (≈ 11.3 µM) | 10 µg/mL (≈ 22.7 µM) | 1.25 µg/mL (≈ 2.84 µM) | – | 7.19
CCc1cc(Nc2cc(=O)n(CCCCN3CCN(c4ccc(F)cc4)CC3)c(=O)[nH]2)ccc1C [Compound 46, 3-{4-[(4-fluorophenyl)piperazinyl]butyl}-6-(3-ethyl-4-methyylanilino)uracil] | 10 µg/mL (≈ 20.9 µM) | 5 µg/mL (≈ 10.4 µM) | 20 µg/mL (≈ 41.7 µM) | 5 µg/mL (≈ 10.4 µM) | 7.15 | –
CCc1cc(Nc2cc(=O)n(CC(=O)N(CC)CC)c(=O)[nH]2)ccc1C [Compound 11, 3-[(N,N-Diethylaminocarbonyl)methyl]-6-(3-ethyl-4-methylanilino)uracil] | 20 µg/mL (≈ 55.8 µM) | 20 µg/mL (≈ 55.8 µM) | 10 µg/mL (≈ 27.9 µM) | 2.5 µg/mL (≈ 6.97 µM) | – | 6.35
CCc1cc(Nc2cc(=O)n(CCNS(C)(=O)=O)c(=O)[nH]2)ccc1C [Compound 16, 3-[2-(Methanesulfonylamino)ethyl]-6-(3-ethyl-4-methylanilino)uracil] | 20 µg/mL (≈ 54.6 µM) | 10 µg/mL (≈ 27.3 µM) | 10 µg/mL (≈ 27.3 µM) | 5 µg/mL (≈ 13.6 µM) | – | 6.54
CCc1cc(Nc2cc(=O)n(CCCN3CCOCC3)c(=O)[nH]2)ccc1C [Compound 24, 3-[3-(N-Morpholino)propyl]-6-(3-ethyl-4-methylanilino)uracil] | 10 µg/mL (≈ 26.8 µM) | 5 µg/mL (≈ 13.4 µM) | 10 µg/mL (≈ 26.8 µM) | 2.5 µg/mL (≈ 6.71 µM) | – | 6.96
CCc1cc(Nc2cc(=O)n(CCCCCNC(=O)c3cc4ccccc4s3)c(=O)[nH]2)ccc1C [Compound 77, 3-[5-(2-benzo[b]thiophenecarboxamido)pentyl]-6-(3-ethyl-4-methylanilino)uracil] | 80 µg/mL (≈ 163 µM) | 80 µg/mL (≈ 163 µM) | 80 µg/mL (≈ 163 µM) | 80 µg/mL (≈ 163 µM) | – | 6.32
CCc1cc(Nc2cc(=O)n(CCCCNC(=O)C3CC3)c(=O)[nH]2)ccc1C [Compound 49, 3-{4-[(cyclopropylcarbonyl)amino]butyl}-6-(3-ethyl-4-methylanilino)uracil] | 5 µg/mL (≈ 13 µM) | 2.5 µg/mL (≈ 6.5 µM) | 5 µg/mL (≈ 13 µM) | 5 µg/mL (≈ 13 µM) | – | 7.09
